Laboratory results from the supplement of paper PMC10307832.

Tests used:
Assay in all cases: relative viability (nuclei count vs DMSO), 5 days (fraction); higher = more cells survive
[1] = compound: C1COCCN1C2=NC(=NC3=C2OC4=C3C=CC=N4)C5=CC(=CC=C5)NC(=O)C6=CN=C(C=C6)N
How it was run: (§1)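 For viability, nuclei in each treated well were divided by nuclei in vehicle wells and the median across plates was taken. Lung cancer cell lines in 1536-well plates were pinned with five library-drug doses (not always all listed) spaced by √10, cultured 5 days without medium change, and imaged at 4× after Hoechst staining, with plates passing only at control CV below 25% and at least one doubling.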

[2] = compound: CN1CCC(CNc2ccc3ncc(-c4cccc(OC(F)(F)F)c4)n3n2)CC1 [SGI-1776]
How it was run: as §1

[3] = compound: Nc1ccccc1NC(=O)c1ccc(CNC(=O)OCc2cccnc2)cc1 [Entinostat]
How it was run: as §1

Cell Line | relative viability ([1]; 0.02 µM) | relative viability ([1]; 0.06325 µM) | relative viability ([1]; 0.2 µM) | relative viability ([1]; 0.6325 µM) | relative viability ([1]; 2 µM) | relative viability ([2]; 0.08 µM) | relative viability ([2]; 0.8 µM) | relative viability ([2]; 2.53 µM) | relative viability ([2]; 8 µM) | relative viability ([3]; 0.02 µM) | relative viability ([3]; 0.06325 µM) | relative viability ([3]; 0.2 µM) | relative viability ([3]; 0.6325 µM) | relative viability ([3]; 2 µM)
NCI-H1648 | 0.93 | 0.788 | 0.853 | 0.538 | 0.794 | 1 | 0.884 | 0.844 | 0.767 | 1.09 | 1 | 0.823 | 0.639 | 0.526
NCI-H1650 | 0.865 | 1.01 | 0.8 | 0.896 | 0.618 | 0.945 | 0.879 | 0.84 | 0.442 | 0.999 | 0.929 | 0.964 | 0.635 | 0.334
NCI-H1651 | 0.994 | 0.994 | 0.978 | 0.951 | 0.8 | 1 | 0.999 | 0.971 | 0.929 | 1.02 | 0.971 | 1.02 | 0.908 | 0.692
NCI-H1666 | 1.08 | 0.994 | 0.975 | 0.826 | 0.764 | 0.98 | 1.02 | 0.98 | 0.899 | 1.1 | 1.05 | 1.08 | 0.799 | 0.514
NCI-H1703 | 0.805 | 0.975 | 0.76 | 0.685 | 0.505 | 0.909 | 0.796 | 0.588 | 0.218 | 1.05 | 1.3 | 1.33 | 1.03 | 0.646
NCI-H1734 | 0.994 | 1.06 | 0.929 | 0.931 | 0.613 | 0.946 | 0.945 | 1.04 | 0.842 | 1.04 | 1.16 | 1.04 | 0.862 | 0.628
NCI-H1755 | 0.997 | 1.06 | 0.999 | 0.956 | 0.841 | 0.954 | 0.993 | 0.945 | 0.819 | 0.98 | 0.94 | 0.927 | 0.665 | 0.467
NCI-H1792 | 0.953 | 0.965 | 0.893 | 0.655 | 0.393 | 1.01 | 0.984 | 0.859 | 0.662 | 1.16 | 1.1 | 1.02 | 0.649 | 0.451
NCI-H1793 | 0.822 | 1.01 | 0.793 | 0.876 | 0.644 | 0.815 | 1.31 | 0.931 | 0.783 | 1.03 | 1.03 | 0.966 | 0.488 | 0.405
NCI-H1915 | 1.02 | 1.06 | 1 | 1.03 | 0.74 | 1.03 | 0.987 | 0.995 | 1 | 1.01 | 0.997 | 1.01 | 0.573 | 0.392
NCI-H1944 | 0.96 | 1.01 | 0.931 | 0.985 | 0.918 | 0.968 | 1.06 | 0.981 | 0.739 | 0.933 | 0.851 | 0.714 | 0.321 | 0.261
NCI-H1975 | 0.881 | 0.968 | 0.895 | 0.874 | 0.684 | 1.06 | 1 | 0.925 | 0.79 | 0.942 | 0.826 | 0.784 | 0.466 | 0.267
NCI-H1993 | 0.981 | 0.953 | 0.797 | 0.946 | 0.736 | 0.926 | 1.04 | 0.924 | 0.733 | 0.986 | 1.02 | 0.899 | 0.805 | 0.645
NCI-H2009 | 0.979 | 1.09 | 0.971 | 0.94 | 0.846 | 1.08 | 0.992 | 1.05 | 0.858 | 1.02 | 0.974 | 0.969 | 0.796 | 0.644
NCI-H2023 | 1.08 | 1.13 | 0.85 | 0.83 | 0.496 | 0.983 | 1.04 | 0.853 | 0.598 | 0.849 | 0.786 | 0.495 | 0.166 | 0.0931
NCI-H2085 | 0.936 | 1.03 | 1.01 | 0.946 | 0.75 | 0.95 | 1.07 | 1.03 | 0.9 | 0.98 | 0.974 | 1 | 0.756 | 0.559

Cell Line | relative viability ([1]; 0.02 µM) | relative viability ([1]; 0.06325 µM) | relative viability ([1]; 0.2 µM) | relative viability ([1]; 0.6325 µM) | relative viability ([1]; 2 µM) | relative viability ([2]; 0.08 µM) | relative viability ([2]; 0.8 µM) | relative viability ([2]; 2.53 µM) | relative viability ([2]; 8 µM) | relative viability ([3]; 0.02 µM) | relative viability ([3]; 0.06325 µM) | relative viability ([3]; 0.2 µM) | relative viability ([3]; 0.6325 µM) | relative viability ([3]; 2 µM)
NCI-H2087 | 1.06 | 1.22 | 1.06 | 0.956 | 0.65 | 1.2 | 1.08 | 0.995 | 0.956 | 1.02 | 0.983 | 0.981 | 0.49 | 0.345
NCI-H2126 | 0.985 | 0.981 | 1.01 | 1.01 | 0.745 | 0.967 | 1.06 | 0.983 | 0.91 | 1.04 | 1.06 | 0.951 | 0.618 | 0.503
NCI-H2170 | 1 | 1.07 | 1.06 | 0.995 | 0.773 | 0.947 | 1 | 0.961 | 0.893 | 0.995 | 0.996 | 0.984 | 0.708 | 0.525
NCI-H2228 | 0.899 | 1.16 | 1.01 | 0.92 | 0.418 | 0.966 | 1.02 | 0.808 | 0.71 | 0.852 | 1.01 | 0.944 | 0.625 | 0.359
NCI-H2342 | 1 | 1.1 | 0.938 | 0.928 | 0.827 | 1.1 | 0.927 | 0.914 | 1.07 | 1.07 | 1.08 | 0.907 | 0.908 | 0.73
NCI-H2347 | 0.983 | 1.09 | 1.09 | 0.977 | 0.741 | 1.13 | 1.08 | 1.02 | 0.963 | 1.03 | 0.992 | 0.91 | 0.521 | 0.366
NCI-H2405 | 0.987 | 1.05 | 0.97 | 0.953 | 0.779 | 1.04 | 1.08 | 0.793 | 0.826 | 1.03 | 1.15 | 0.972 | 0.915 | 0.609
NCI-H3122 | 1.03 | 1.01 | 1.01 | 1.05 | 0.862 | 1.03 | 0.99 | 1.04 | 1.05 | 1 | 1.03 | 1.02 | 0.959 | 0.677
PC-3 [JPC-3] | 1.06 | 1.05 | 1.06 | 1.03 | 0.927 | 1.07 | 1.09 | 1.01 | 0.805 | 1.03 | 1.01 | 1.02 | 0.57 | 0.488
PC-14 | 0.974 | 1.14 | 1.03 | 0.852 | 0.525 | 1.09 | 1.03 | 0.972 | 0.491 | 1.08 | 1.11 | 1.06 | 0.424 | 0.14
RERF-LC-KJ | 1.01 | 1.05 | 0.973 | 0.928 | 0.743 | 1.03 | 1 | 0.957 | 0.843 | 0.952 | 0.986 | 0.922 | 0.631 | 0.297
SK-LU-1 | 1.11 | 1.12 | 1.03 | 1.01 | 0.554 | 1.23 | 1.09 | 1.03 | 0.839 | 1.01 | 1.08 | 1.02 | 0.698 | 0.57
SK-MES-1 | 1.02 | 1.08 | 0.925 | 0.868 | 0.673 | 1.06 | 1.07 | 1 | 0.868 | 1.01 | 1.15 | 1.19 | 1.02 | 0.701
SW 900 | 0.759 | 1.01 | 0.87 | 0.784 | 0.76 | 0.891 | 1.01 | 0.746 | 0.526 | 0.92 | 0.944 | 0.92 | 0.748 | 0.519
SW 1573 | 0.954 | 1.09 | 1.03 | 0.918 | 0.611 | 1.06 | 0.965 | 0.959 | 0.754 | 0.998 | 1.11 | 1.09 | 1 | 0.874
